We go through 8 substances from the OligoGym collection.

HELM strings list units from the 5' end as sugar, base in round brackets, then linkage (d deoxyribose, r ribose, m 2'-O-methyl, p phosphodiester). Strings are as the collection lists them; they lack the last nucleoside at the 3' end of the tested compound. [moe] = 2'-O-(2-methoxyethyl) (MOE); [sp] = phosphorothioate linkage; [m5C] = 5-methylcytosine

For this series, the target named is ATXN2. The series is described as follows: mouse, dose not given. Conditions: ASO.

Take “RNA1{[moe]([m5C])[sp].[moe]([m5C])p.[moe](A)p.[moe](T)p.[moe](A)p.d(A)[sp].d(T)[sp].d([m5C])[sp].d(T)[sp].d([m5C])[sp].d(A)[sp].d(T)[sp].d(T)[sp].d([m5C])[sp].d(T)[sp].[moe]([m5C])p.[moe](A)p.[moe](T)[sp].[moe](A)}$$$$ (last 3' nucleoside missing)”: the 3 h FOB score was found to be 2.25 score 0-7.
For “RNA1{[moe]([m5C])[sp].[moe]([m5C])p.[moe](A)p.[moe](T)p.[moe](A)p.d([m5C])[sp].d(G)[sp].d([m5C])[sp].d(G)[sp].d(G)[sp].d(T)[sp].d(G)[sp].d(A)[sp].d(A)[sp].d(T)[sp].[moe](T)p.[moe]([m5C])p.[moe](T)[sp].[moe](G)}$$$$ (last 3' nucleoside missing)” the value was 4.5 score 0-7.
For “RNA1{[moe]([m5C])[sp].[moe]([m5C])p.[moe](G)p.[moe](G)p.[moe](A)p.d(T)[sp].d(T)[sp].d(G)[sp].d(T)[sp].d(T)[sp].d(T)[sp].d(T)[sp].d([m5C])[sp].d(T)[sp].d(T)[sp].[moe]([m5C])p.[moe](A)p.[moe](T)[sp].[moe](T)}$$$$ (last 3' nucleoside missing)” the value was 1 score 0-7.
In turn, “RNA1{[moe]([m5C])[sp].[moe]([m5C])p.[moe](T)p.[moe](A)p.[moe](T)[sp].d([m5C])[sp].d(A)[sp].d(T)[sp].d([m5C])[sp].d(A)[sp].d(T)[sp].d(T)[sp].d(T)[sp].[moe](T)p.[moe]([m5C])p.[moe]([m5C])[sp].[moe](A)}$$$$ (last 3' nucleoside missing)” had a 3 h FOB score of 1 score 0-7.
For “RNA1{[moe]([m5C])[sp].[moe]([m5C])p.[moe](T)p.[moe](A)p.[moe](T)p.[moe]([m5C])p.d(A)[sp].d(T)[sp].d([m5C])[sp].d(A)[sp].d(T)[sp].d(T)[sp].d(T)[sp].d(T)[sp].d([m5C])[sp].d([m5C])[sp].[moe](A)p.[moe](G)[sp].[moe](G)}$$$$ (last 3' nucleoside missing)” the value was 1.25 score 0-7.
Then “RNA1{[moe]([m5C])[sp].[moe]([m5C])p.[moe](T)p.[moe](A)p.[moe](T)p.d([m5C])[sp].d(A)[sp].d(T)[sp].d([m5C])[sp].d(A)[sp].d(T)[sp].d(T)[sp].d(T)[sp].d(T)[sp].d([m5C])[sp].[moe]([m5C])p.[moe](A)p.[moe](G)[sp].[moe](G)}$$$$ (last 3' nucleoside missing)”, with 5.5 score 0-7; and “RNA1{[moe]([m5C])[sp].[moe]([m5C])p.[moe](T)p.[moe](A)p.d(T)[sp].d([m5C])[sp].d(A)[sp].d(T)[sp].d([m5C])[sp].d(A)[sp].d(T)[sp].d(T)[sp].d(T)[sp].d(T)[sp].[moe]([m5C])p.[moe]([m5C])p.[moe](A)p.[moe](G)[sp].[moe](G)}$$$$ (last 3' nucleoside missing)”, with 1.75 score 0-7; and “RNA1{[moe]([m5C])[sp].[moe]([m5C])p.[moe]([m5C])p.[moe](A)p.[moe](A)p.d(A)[sp].d(G)[sp].d(G)[sp].d(G)[sp].d(T)[sp].d(T)[sp].d(A)[sp].d(A)[sp].d(T)[sp].d(T)[sp].[moe](A)p.[moe](G)p.[moe](G)[sp].[moe](A)}$$$$ (last 3' nucleoside missing)”, with 1 score 0-7.
